Results from PMC5614690, “Peptide translocation across MOMP, the major outer membrane channel from Campylobacter jejuni” (Biochemistry and Biophysics Reports, 2017).

Columns and labels:
[1] = test system: MOMP channel; assay: Single-channel ion-current measurement of MOMP in planar lipid bilayer (peptide binding and translocation); set-up: species or system Campylobacter jejuni (strain 85 H); conditions: for ion-current blockage of MOMP monomer: 3 µM peptide, +125 mV; for kon (association rate) / koff (dissociation rate): 10 µM peptide, single MOMP monomer (MOMP cis); for kon (association rate): DPhPC bilayer; for Ka (equilibrium binding constant): Ka = kon/koff; for on-rate (range given): Penta- and Hepta-arginine together; for koff (dissociation rate): koff = 1/τ; for association rate kon as a function of applied voltage: +150 to +250 mV, Penta- vs Hepta-arginine, Fig. 3A; for translocation across MOMP: concluded from voltage dependence of ion-current fluctuations; for residence time, cis vs trans peptide addition / frequency of binding events, cis vs trans peptide addition: control: peptide on cis (ground) side; for residence time, cis vs trans peptide addition: –125 to –250 mV; for frequency of binding events, cis vs trans peptide addition: –150 and –250 mV; for threshold potential for successful translocation: peptide trans, MOMP cis
Method: The planar lipid bilayer was formed using solvent free lipid bilayer technique, [29]. In brief, the cuvettes used for our bilayer experiments consist of cis (electrical ground and side of protein addition if not otherwise indicated) and trans chambers separated by a 25 µm thick Teflon film (Goodfellow, Cambridge, UK) carrying an aperture with a diameter of 40–70 µm. Prior to forming a lipid bilayer, the aperture is pre-painted with 1 μl of 1% hexadexane in hexane. 5% solution of DPhPC in hexane is commonly used as lipid stock. The chambers are filled with electrolyte solution which typically consists of 1 M KCl, 10 mM MES, pH 6.0 with a total solution volume of 2.5 ml. On top of the aqueous phase about 1 μl of the lipid stock solution is placed. After 10 min allowing for evaporation of solvent, the membrane is formed by raising and lowering the water level. To investigate the outer membrane protein of C. jejuni, MOMP was added to the cis (ground) side of the chamber to a final concentration of 5 ng/ml and the channel insertion was facilitated by rapid mixing of the content of the chamber while applying a transmembrane potential of −199 mV. Electrical recordings were made through a pair of Ag/AgCl electrodes (World Precision Instruments, Sarasota, FL, USA), attached to an Axon Instruments 200B amplifier (Axon Instruments Inc., Sunnyvale, CA, USA) in the voltage clamp mode. Data were filtered by a low pass Bessel filter at 10 kHz and directly saved into the computer memory with a sampling frequency of 50 kHz. Data analysis was performed using Clampfit software of version 10.4 (Axon Instruments Inc., Sunnyvale, CA, USA). To obtain quantitative information on the interaction of peptides with the channel we assume that peptide binding or penetration to the channel cause sufficiently strong reduction of the ion-current compared to the typical background noise. […] This is even more pronounced for longer peptides (Fig. 1C and D).
Fig. 1 Typical ion-conductance traces of monomeric MOMP in presence of poly-arginines at +125 mV. A. In the absence of peptides; B. 3 µM of Tri-arginine; C. […] Experimental conditions: 1 M KCl, 10 mM MES, pH 6.0, T= 20 °C. The peptide is added to the trans compartment of the cuvette corresponding to the electrode at positive voltage. For the sake of clarity the traces were filtered at 5 kHz. MOMP is added on the cis (ground) side (n = 4).
For further analysis we should note that in our experiment we work under dilute concentrations and thus, the number of entries is in good approximation proportional to the concentration of the peptides in solution. The on-rate kon (association rate) is obtained by counting the number of ion-current blockage events per time n [s^−1] divided by the concentration [c] of the peptide, [26], [29], [30]. Furthermore, in some cases we have trimeric MOMP and the ion-current blockages may originate independently from one of the three monomers. kon=n/3[c]
On the other hand the opening is a statistical event and correlated to the strength of the binding. A channel which is closed at t = 0 will have the probability R(t) to open at time t. Within the above described simple binding model an exponential function R(t) = e^-t/τ. Fitting the life-time distribution of a closed channel by an exponential parameter τ (or dwell time) yields the off-rate (dissociation rate) koff = 1/τ [30]. The equilibrium binding constant Ka [M^−1] of the peptide to the channel is given by the ratio of the rates Ka = kon/koff.
Fig. 2 Analysis of the ion-current fluctuations. A. Hepta-arginine concentration dependence of binding events; data were analysed at applied voltages, +150 and +250 mV; and B. Frequency of binding events of the peptide (10 µM) vs. applied transmembrane potential. Experimental conditions: 1 M KCl, 10 mM MES, pH 6.0, T= 20 °C. MOMP is added on the cis (ground) side (n = 4).
A. Voltage dependence of the on-rate; and B. off-rate. […]

[2] = test system: Nocardia channel; conditions: ref [25]; cited from earlier work
Excerpt: Binding and translocation can be distinguished using the voltage dependency of the association and disassociation rates. If the time spent by a charged molecule inside the channel increases with increasing voltage, we conclude that the molecule is pulled inside on one side of the channel without being translocated. On the other hand, if the residence time decreases with increasing voltage we conclude that the molecule is able to follow the electric field gradient leaving faster to the other side. In the case of Hepta-arginine, the residence time increased from ~100 to 410 µs with increa ...

[3] = trans side, 1 M KCl, 10 mM MES, pH 6.0, 20 °C, n = 4
[4] = +150 mV, trans side, 1 M KCl, 10 mM MES, pH 6.0, 20 °C, n = 4
[5] = +150 mV, 1 M KCl, 10 mM MES, pH 6.0, 20 °C
[6] = +150 mV, 10 µM, trans side, 1 M KCl, 10 mM MES, pH 6.0, 20 °C
[7] = +175 mV, trans side, 1 M KCl, 10 mM MES, pH 6.0, 20 °C, n = 4
[8] = +175 mV, 1 M KCl, 10 mM MES, pH 6.0, 20 °C
[9] = +250 mV, trans side, 1 M KCl, 10 mM MES, pH 6.0, 20 °C, n = 4
[10] = +250 mV, 1 M KCl, 10 mM MES, pH 6.0, 20 °C
[11] = 1 M KCl, 10 mM MES, pH 6.0, 20 °C

Row | Substance | strength of channel–peptide interaction (order) [1] | ion-current blockage of MOMP monomer [1, 3] | kon (association rate) [1, 4] | Ka (equilibrium binding constant) [1, 5] | on-rate (range given) [1, 6] | koff (dissociation rate) [1, 4] | association rate kon as a function of applied voltage [1] | kon (association rate) [1, 7] | Ka (equilibrium binding constant) [1, 8] | koff (dissociation rate) [1, 7] | kon (association rate) [1, 9] | Ka (equilibrium binding constant) [1, 10] | koff (dissociation rate) [1, 9] | translocation across MOMP [1] | residence time, cis vs trans peptide addition ([1]; n = 4) | frequency of binding events, cis vs trans peptide addition ([1]; n = 4) | threshold potential for successful translocation [1, 11] | voltage for pulling peptide through Nocardia channel [2] | also measured
1 | H-RRRRRRR-OH [Hepta-arginine, H-RRRRRRR-OH trifluoro acetate salt, Mw: 1.111 kDa, from Bachem AG] | Hepta-arginine > Penta-arginine > Tri-arginine | complete monomer blockage | 14.5 ± 1.5 (M^−1 s^−1) × 10^6 | 4.4 ± 0.3 (M^−1) × 10^3 | 13 ± 2 10^6 M^−1 s^−1 | 3.2 ± 0.1 (s^−1) × 10^3 | almost identical increasing values | 22.2 ± 0.8 (M^−1 s^−1) × 10^6 | 8.5 ± 0.2 (M^−1) × 10^3 | 2.6 ± 0.3 (s^−1) × 10^3 | 39.1 ± 0.5 (M^−1 s^−1) × 10^6 | 7.7 ± 0.3 (M^−1) × 10^3 | 5.0 ± 0.8 (s^−1) × 10^3 | translocate across the MOMP channel | did not reveal significant differences | did not reveal significant differences | +175 mV | > −150 mV | number of binding events vs peptide concentration ([1]; 1 to 10 µM, +150 and +250 mV, n = 4): the number of binding events increased with the concentration of the peptide; binding vs translocation, low voltage ([1]; +125 to +175 mV, 10 µM): binds to channel without being translocated; reduction in residence time with voltage ([1]; +175 to +250 mV): reduction of one-fold; binding vs translocation, high voltage ([1]; +175 to +250 mV, 10 µM): successful translocation of the peptide; ion-current blockage, reverse addition ([1]; peptide on cis (ground) side, MOMP on trans side, negative voltages): strong monomer blockages with negative voltages; residence time, end of decrease ([1]; peptide on cis (ground) side, MOMP on trans side, –125 to –250 mV (Fig. S5), final value, 1 M KCl, 10 mM MES, pH 6.0, 20 °C, n = 4): 200 µs; residence time, start of decrease ([1]; peptide on cis (ground) side, MOMP on trans side, –125 to –250 mV (Fig. S5), starting value, 1 M KCl, 10 mM MES, pH 6.0, 20 °C, n = 4): 410 µs
2 | Tri-arginine | Hepta-arginine > Penta-arginine > Tri-arginine | visible but very short and not fully resolvable monomer blockages |  |  |  |  |  |  |  |  |  |  |  |  |  |  |  |  | residence time ([1]; +125 to +250 mV, 10 µM, trans side (MOMP cis), corresponds to time resolution of the instrument, 1 M KCl, 10 mM MES, pH 6.0, 20 °C, n = 4): ~ 70 ± 5 µs
3 | H-RRRRR-OH [Penta-arginine, H-RRRRR-OH trifluoroacetate salt, Mw: 0.798 kDa, from Bachem AG] | Hepta-arginine > Penta-arginine > Tri-arginine | complete monomer blockage | 12.9 ± 1.2 (M^−1 s^−1) × 10^6 | 2.0 ± 0.5 (M^−1) × 10^3 | 13 ± 2 10^6 M^−1 s^−1 | 6.2 ± 0.3 (s^−1) × 10^3 | almost identical increasing values | 20.4 ± 1.2 (M^−1 s^−1) × 10^6 | 4.1 ± 0.3 (M^−1) × 10^3 | 5.0 ± 0.6 (s^−1) × 10^3 | 34.7 ± 0.8 (M^−1 s^−1) × 10^6 | 3.3 ± 0.2 (M^−1) × 10^3 | 10.3 ± 0.8 (s^−1) × 10^3 | translocate across the MOMP channel | did not reveal significant differences | did not reveal significant differences | +175 mV | > –175 mV | koff relative to Hepta-arginine ([1]; Fig. 3B, 10 µM, trans side): about twice higher off-rates; permeation vs voltage ([1]; increasing voltages): permeated faster with increasing voltages
